Laboratory results as given in US12091425B2 (AMGEN INC., priority 2016, dated 2024).

Assays:
[1] = biological target: T1, Mcl-1/Bim interaction, recombinant human Mcl-1 (171-327) (Homo sapiens, UniProt Q07820); test: Cell free Mcl-1: Bim Affinity Assay (Mcl-1 HTRF); type: binding
T1 construct: made in house
How it was run: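 Read-out is time-resolved FRET after overnight incubation, using a biotin-labelled peptide from human Bim (51-76) as the binding partner; IC50 was derived from competition curves.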

[2] = system: OPM-2 human multiple myeloma cell line; test: Cell Viability Assay (OPM-2 10 FBS); type: cell-based; conditions: OPM-2 cells, CellTiter-Glo
Protocol: Cell Viability Assay (OPM-2 10 FBS)
Cells were seeded into 384-well plates at 3000 cells/well density in complete growth medium containing 10% FBS, and incubated for 16 h with serially diluted test compounds in a 37° C. incubator with 5% CO2. Cell viability was tested using CellTiter-Glo® assay (Promega, Madison, WI) according to the manufacturer recommendations. Luminescence was determined using an EnVision® Multilabel plate reader 25 min after the addition of detection reagent. IC50 values were then calculated with Xlfit using a logistical 4-parameter fit model in GraphPad Prism (GraphPad Software, San Diego, CA) or in Genedata Screener® (Genedata, Basel, Switzerland).

[3] = TR-FRET, 0.1 nM Mcl-1 (171-327), 0.05 nM biotin-Bim (51-76)
[4] = Homo sapiens, OPM-2, 16 h, 16 h
[5] = cell free Mcl-1:Bim TR-FRET, recombinant human Mcl-1 (171-327)

T1 sequence (Q07820 171-327): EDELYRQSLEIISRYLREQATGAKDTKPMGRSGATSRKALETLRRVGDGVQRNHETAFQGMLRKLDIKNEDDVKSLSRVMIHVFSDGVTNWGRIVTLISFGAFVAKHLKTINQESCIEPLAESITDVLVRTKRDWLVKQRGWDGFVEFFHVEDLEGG

| IC50 [1, 3] | IC50 [2, 4] | Compound | further results |
| --- | --- | --- | --- |
| 0.000276 µM | 2.64 µM | C[C@@H]1CC/C=C/[C@H](OC[C@H](O)CO)[C@@H]2CC[C@H]2CN2C[C@@]3(CCCc4cc(Cl)ccc43)COc3ccc(cc32)C(=O)NS1(=O)=O (mixture of isomers) [Example 415] |  |
|  | 0.467 µM | C[C@@H]1[C@@H](C)C/C=C/[C@H](OCCO[C@H]2CCCCO2)[C@@H]2CC[C@H]2CN2C[C@@]3(CCCc4cc(Cl)ccc43)COc3ccc(cc32)C(=O)NS1(=O)=O (mixture of isomers) [Example 517] | IC50 [1, 5]: 0.00187 µM |
|  | 2.33 µM | O=C1NS(=O)(=O)N(CC2CCCO2)C/C=C/[C@H](O)[C@@H]2CC[C@H]2CN2C[C@@]3(CCCc4cc(Cl)ccc43)COc3ccc1cc32 (mixture of isomers) [Example 691] | IC50 [1, 5]: 0.00181 µM |
| 0.00408 µM |  | CCN1[C@H](C)C/C=C\[C@H](O)[C@@H]2CC[C@H]2CN2C[C@@]3(CCCc4cc(Cl)ccc43)COc3ccc(cc32)C(=O)NS1(=O)=O (single isomer, unassigned) [Example 60] | IC50 ([2]; 16 h): 2.69 µM |
| 0.000728 µM | 0.81 µM | COCCN1[C@@H](C)C/C=C\[C@H](O)[C@@H]2CC[C@H]2CN2C[C@@]3(CCCc4cc(Cl)ccc43)COc3ccc(cc32)C(=O)NS1(=O)=O (single isomer, unassigned) [Example 63] |  |
| 0.000678 µM | 0.399 µM | COCCO[C@H]1/C=C\C[C@H](C)NS(=O)(=O)NC(=O)c2ccc3c(c2)N(C[C@@H]2CC[C@H]21)C[C@@]1(CCCc2cc(Cl)ccc21)CO3 (single isomer, unassigned) [Example 64] |  |
| 0.00238 µM | 1.17 µM | COCCO[C@H]1/C=C\C[C@H](C)N(CCOC)S(=O)(=O)NC(=O)c2ccc3c(c2)N(C[C@@H]2CC[C@H]21)C[C@@]1(CCCc2cc(Cl)ccc21)CO3 (single isomer, unassigned) [Example 65] |  |
| 0.00053 µM | 0.276 µM | COCCO[C@H]1/C=C/C[C@H](C)N(CCOC)S(=O)(=O)NC(=O)c2ccc3c(c2)N(C[C@@H]2CC[C@H]21)C[C@@]1(CCCc2cc(Cl)ccc21)CO3 (single isomer, unassigned) [Example 69] |  |
| 0.000324 µM | 0.445 µM | COCCCN1[C@@H](C)C/C=C/[C@H](O)[C@@H]2CC[C@H]2CN2C[C@@]3(CCCc4cc(Cl)ccc43)COc3ccc(cc32)C(=O)NS1(=O)=O (single isomer, unassigned) [Example 72] |  |
| 0.000728 µM | 1.66 µM | COCCCN1[C@@H](C)C/C=C\[C@H](O)[C@@H]2CC[C@H]2CN2C[C@@]3(CCCc4cc(Cl)ccc43)COc3ccc(cc32)C(=O)NS1(=O)=O (single isomer, unassigned) [Example 73] |  |
| 0.00113 µM | 0.381 µM | COCCCO[C@H]1/C=C/C[C@H](C)NS(=O)(=O)NC(=O)c2ccc3c(c2)N(C[C@@H]2CC[C@H]21)C[C@@]1(CCCc2cc(Cl)ccc21)CO3 (single isomer, unassigned) [Example 74] |  |
| 0.00166 µM | 0.875 µM | COCCCO[C@H]1/C=C/C[C@H](C)N(CCCOC)S(=O)(=O)NC(=O)c2ccc3c(c2)N(C[C@@H]2CC[C@H]21)C[C@@]1(CCCc2cc(Cl)ccc21)CO3 (single isomer, unassigned) [Example 75] |  |
| 0.00898 µM | 6.53 µM | COc1ccc(CN2[C@@H](C)C/C=C/[C@H](O)[C@@H]3CC[C@H]3CN3C[C@@]4(CCCc5cc(Cl)ccc54)COc4ccc(cc43)C(=O)NS2(=O)=O)cc1 (single isomer, unassigned) [Example 80] |  |
| 0.0386 µM | 6.44 µM | COc1ccc(CN2[C@@H](C)C/C=C\[C@H](O)[C@@H]3CC[C@H]3CN3C[C@@]4(CCCc5cc(Cl)ccc54)COc4ccc(cc43)C(=O)NS2(=O)=O)cc1 (single isomer, unassigned) [Example 81] |  |
| 0.00044 µM | 0.323 µM | O=C1NS(=O)(=O)[C@H]2CC[C@@H]2C/C=C/[C@H](O)[C@@H]2CC[C@H]2CN2C[C@@]3(CCCc4cc(Cl)ccc43)COc3ccc1cc32 (single isomer, unassigned) [Example 90] |  |

The remaining lines, values behind:

| Compound | IC50 [1, 3] | IC50 [2, 4] | further results |
| --- | --- | --- | --- |
| CC(C)(C)S(=O)(=O)CC[C@@H]1CC/C=C/[C@H](O)[C@@H]2CC[C@H]2CN2C[C@@]3(CCCc4cc(Cl)ccc43)COc3ccc(cc32)C(=O)NS1(=O)=O.CC(C)(C)S(=O)(=O)CC[C@H]1CC/C=C/[C@H](O)[C@@H]2CC[C@H]2CN2C[C@@]3(CCCc4cc(Cl)ccc43)COc3ccc(cc32)C(=O)NS1(=O)=O (mixture of isomers) [Example 154] | 0.000258 µM |  | IC50 ([2]; 16 h): 7.58 µM |
| CNC(=O)[C@@H](OC)[C@@H]1/C=C/[C@@H]2CC[C@H]2CN2C[C@@]3(CCCc4cc(Cl)ccc43)COc3ccc(cc32)C(=O)NS(=O)(=O)[C@H](C)[C@@H](C)C1.CNC(=O)[C@H](OC)[C@@H]1/C=C/[C@@H]2CC[C@H]2CN2C[C@@]3(CCCc4cc(Cl)ccc43)COc3ccc(cc32)C(=O)NS(=O)(=O)[C@H](C)[C@@H](C)C1 (mixture of isomers) [Example 362] | 0.000639 µM |  | IC50 ([2]; 16 h): 0.476 µM |
| COC(C)COC1C=CCC(C)C(C)S(=O)(=O)NC(=O)c2ccc3c(c2)N(CC2CCC21)CC1(CCCc2cc(Cl)ccc21)CO3 (mixture of isomers) [Example 519] |  |  | IC50 [1, 5]: 0.00144 µM; IC50 ([2]; 16 h): 0.339 µM |
| COCC1COCCN1CCOC1C=CCC(C)C(C)S(=O)(=O)NC(=O)c2ccc3c(c2)N(CC2CCC21)CC1(CCCc2cc(Cl)ccc21)CO3 (mixture of isomers) [Example 530] |  |  | IC50 [1, 5]: 0.000763 µM; IC50 ([2]; 16 h): 0.134 µM |
| COCC(C)OC1C=CCCC(C)S(=O)(=O)NC(=O)c2ccc3c(c2)N(CC2CCC21)CC1(CCCc2cc(Cl)ccc21)CO3 (mixture of isomers) [Example 955] | 0.00123 µM |  | IC50 ([2]; 16 h incubation): 0.567 µM |
| CCC1CCC=CC(OC(C)C(=O)OC)C2CCC2CN2CC3(CCCc4cc(Cl)ccc43)COc3ccc(cc32)C(=O)NS1(=O)=O (mixture of isomers) [Example 1004] | 0.000635 µM |  | IC50 ([2]; 16 h incubation): 0.0236 µM |
| CCC1CCC=CC(OC(C)C(N)=O)C2CCC2CN2CC3(CCCc4cc(Cl)ccc43)COc3ccc(cc32)C(=O)NS1(=O)=O (mixture of isomers) [Example 1006] | 0.00081 µM |  | IC50 ([2]; 16 h incubation): 11.6 µM |
| CO[C@H]1/C=C/CCN(C)S(=O)(=O)NC(=O)c2ccc3c(c2)N(C[C@@H]2CC[C@H]21)C[C@@]1(CCCc2cc(Cl)ccc21)CO3 (single isomer, unassigned) [Example 47] | 0.000629 µM | 1.28 µM |  |
| C[C@H]1C/C=C/[C@H](O)[C@@H]2CC[C@H]2CN2C[C@@]3(CCCc4cc(Cl)ccc43)COc3ccc(cc32)C(=O)NS(=O)(=O)N1C[C@@H]1CCCO1 (single isomer, unassigned) [Example 49] | 0.000321 µM | 0.445 µM |  |
| C[C@H]1C/C=C\[C@H](O)[C@@H]2CC[C@H]2CN2C[C@@]3(CCCc4cc(Cl)ccc43)COc3ccc(cc32)C(=O)NS(=O)(=O)N1C[C@@H]1CCCO1 (single isomer, unassigned) [Example 50] | 0.00362 µM | 2.21 µM |  |
| C[C@@H]1C/C=C/[C@H](O)[C@@H]2CC[C@H]2CN2C[C@@]3(CCCc4cc(Cl)ccc43)COc3ccc(cc32)C(=O)NS(=O)(=O)N1C[C@@H]1CCCO1 (single isomer, unassigned) [Example 51] | 0.00559 µM | 1.83 µM |  |
| C[C@@H]1C/C=C\[C@H](O)[C@@H]2CC[C@H]2CN2C[C@@]3(CCCc4cc(Cl)ccc43)COc3ccc(cc32)C(=O)NS(=O)(=O)N1C[C@@H]1CCCO1 (single isomer, unassigned) [Example 52] | 0.00393 µM | 1.81 µM |  |
| C[C@H]1C/C=C/[C@H](O)[C@@H]2CC[C@H]2CN2C[C@@]3(CCCc4cc(Cl)ccc43)COc3ccc(cc32)C(=O)NS(=O)(=O)N1C[C@H]1CCCO1 (single isomer, unassigned) [Example 53] | 0.00079 µM | 0.486 µM |  |
| C[C@H]1C/C=C\[C@H](O)[C@@H]2CC[C@H]2CN2C[C@@]3(CCCc4cc(Cl)ccc43)COc3ccc(cc32)C(=O)NS(=O)(=O)N1C[C@H]1CCCO1 (single isomer, unassigned) [Example 54] | 0.000781 µM | 0.774 µM |  |
| C[C@@H]1C/C=C\[C@H](O)[C@@H]2CC[C@H]2CN2C[C@@]3(CCCc4cc(Cl)ccc43)COc3ccc(cc32)C(=O)NS(=O)(=O)N1C[C@H]1CCCO1 (single isomer, unassigned) [Example 56] | 0.00304 µM | 1.79 µM |  |
| CCN1[C@@H](C)C/C=C/[C@H](O)[C@@H]2CC[C@H]2CN2C[C@@]3(CCCc4cc(Cl)ccc43)COc3ccc(cc32)C(=O)NS1(=O)=O (single isomer, unassigned) [Example 57] | 0.000491 µM | 0.555 µM |  |
| CCN1C(C)C/C=C\[C@H](O)[C@@H]2CC[C@H]2CN2C[C@@]3(CCCc4cc(Cl)ccc43)COc3ccc(cc32)C(=O)NS1(=O)=O (single isomer, unassigned) [Example 58] | 0.000994 µM |  | IC50 ([2]; 16 h): 1.18 µM |
| O=C1NS(=O)(=O)[C@H]2CCC[C@H](/C=C/[C@H](O)[C@@H]3CC[C@H]3CN3C[C@@]4(CCCc5cc(Cl)ccc54)COc4ccc1cc43)C2 (single isomer, unassigned) [Example 104] | 0.04 µM |  | IC50 ([2]; 16 h): 13 µM |
| CC[C@@H]1CC/C=C/[C@H](OCCC(=O)OC)[C@@H]2CC[C@H]2CN2C[C@@]3(CCCc4cc(Cl)ccc43)COc3ccc(cc32)C(=O)NS1(=O)=O [Example 1007] |  |  | IC50 ([2]; Homo sapiens, OPM-2, 16 h, 16 h incubation): 0.074 µM |
